The values that follow come from US11591306B2, “Vitamin E-based amphipathic compound, and use thereof” (Industry-University Cooperation Foundation Hanyang …, priority 2017, dated 2023).

The target in data set [1] is T1, UapA (Emericella nidulans, UniProt Q07307, G411V). The experiment in a line: UapA extraction and thermal stability by fluorescence size exclusion chromatography (FSEC). The following applies: for UapA integrity after thermal treatment (FSEC): 45° C. for 10 minutes; for Ability to extract and solubilize UapA (FSEC): before thermal treatment, 60 minutes on ice. The arrangement: made in house. The method, then: The membrane containing UapA was resuspended in a pH 8.0 PBS buffer containing 10 mM imidazole, 150 mM NaCl and 10% glycerol, and a protein concentration was measured. The membrane was adjusted to a concentration of 1 mg/ml, and a 1 ml aliquot was incubated for 60 minutes with each of 1.0 mL of DDM, LMNG, VEG-3 and VEG-5, on ice under stirring. A 100 uL aliquot was obtained from each tube and subjected to ultracentrifugation for 10 minutes at 150,000 g, and then fluorescent SEC (FSEC) was performed on each sample. The remaining soluble fractions were incubated for 10 minutes at 45° C. The thermally-treated samples were applied to FSEC to monitor the integrity of a transporter. FSEC was performed using a Superose6 column (GE Healthcare) equilibrated with a buffer containing an appropriate preparation (DDM, LMNG, VEG-3 or VEG-5).
T1 sequence (Q07307 12-574 G411V): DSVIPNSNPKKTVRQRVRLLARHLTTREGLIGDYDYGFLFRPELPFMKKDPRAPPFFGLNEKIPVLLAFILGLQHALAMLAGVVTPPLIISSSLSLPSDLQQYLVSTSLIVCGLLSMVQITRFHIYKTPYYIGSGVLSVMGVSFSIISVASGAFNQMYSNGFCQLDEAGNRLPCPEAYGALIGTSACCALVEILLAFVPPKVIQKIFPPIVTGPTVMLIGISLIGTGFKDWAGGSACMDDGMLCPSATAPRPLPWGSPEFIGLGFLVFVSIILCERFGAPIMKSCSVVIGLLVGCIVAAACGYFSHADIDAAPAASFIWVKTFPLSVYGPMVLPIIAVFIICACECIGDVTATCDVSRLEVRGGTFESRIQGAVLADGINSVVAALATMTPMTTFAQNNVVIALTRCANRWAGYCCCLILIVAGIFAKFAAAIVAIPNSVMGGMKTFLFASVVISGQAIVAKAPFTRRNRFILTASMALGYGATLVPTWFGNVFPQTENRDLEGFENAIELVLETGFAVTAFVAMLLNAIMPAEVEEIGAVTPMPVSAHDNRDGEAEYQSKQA
For orientation: SEC sorts molecules by how far they enter the pores of the column.

For data set [2], the target named is T2, β2AR-Gs complex (Homo sapiens, UniProt P07550).
T2 construct: made in house
T2 sequence (P07550 whole entry): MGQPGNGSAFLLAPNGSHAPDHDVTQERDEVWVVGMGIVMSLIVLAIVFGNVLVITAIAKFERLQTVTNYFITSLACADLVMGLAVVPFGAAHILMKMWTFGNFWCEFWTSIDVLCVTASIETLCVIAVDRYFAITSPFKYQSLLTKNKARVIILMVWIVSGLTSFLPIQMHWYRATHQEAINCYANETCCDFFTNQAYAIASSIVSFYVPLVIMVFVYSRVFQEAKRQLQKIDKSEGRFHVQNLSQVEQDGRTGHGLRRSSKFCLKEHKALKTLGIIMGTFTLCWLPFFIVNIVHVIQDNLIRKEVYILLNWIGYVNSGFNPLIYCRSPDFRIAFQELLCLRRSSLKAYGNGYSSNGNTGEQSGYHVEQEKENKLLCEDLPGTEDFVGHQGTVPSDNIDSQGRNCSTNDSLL
T2 sequence (P63092 whole entry partner): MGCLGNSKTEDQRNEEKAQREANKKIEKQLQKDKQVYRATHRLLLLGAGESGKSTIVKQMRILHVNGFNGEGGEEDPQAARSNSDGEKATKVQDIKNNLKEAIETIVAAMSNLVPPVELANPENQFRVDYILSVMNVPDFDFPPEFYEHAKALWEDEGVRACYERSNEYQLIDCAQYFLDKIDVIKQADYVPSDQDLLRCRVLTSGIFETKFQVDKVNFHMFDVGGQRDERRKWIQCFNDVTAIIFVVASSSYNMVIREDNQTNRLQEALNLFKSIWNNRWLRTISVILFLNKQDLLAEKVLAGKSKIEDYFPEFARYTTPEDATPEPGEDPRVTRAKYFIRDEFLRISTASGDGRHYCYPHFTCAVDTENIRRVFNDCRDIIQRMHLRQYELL
T2 sequence (P62873 whole entry partner): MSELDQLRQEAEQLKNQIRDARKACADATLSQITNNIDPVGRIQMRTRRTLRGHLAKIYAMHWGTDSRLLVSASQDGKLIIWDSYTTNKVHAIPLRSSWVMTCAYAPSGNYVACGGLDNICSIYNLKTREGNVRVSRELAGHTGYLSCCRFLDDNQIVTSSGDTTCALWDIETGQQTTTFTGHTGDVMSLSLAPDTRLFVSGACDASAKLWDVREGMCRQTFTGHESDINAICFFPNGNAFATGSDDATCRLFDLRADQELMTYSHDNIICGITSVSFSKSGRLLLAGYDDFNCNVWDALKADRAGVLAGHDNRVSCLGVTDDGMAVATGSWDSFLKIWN
T2 sequence (P59768 2-68 partner limits assumed): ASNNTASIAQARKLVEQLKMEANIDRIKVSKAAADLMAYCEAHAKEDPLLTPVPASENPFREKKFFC
The following applies: complex purified by DDM, previous study; cited from earlier work.

The target in the next data set is T3, β2AR (Homo sapiens, UniProt P07550).
T3 construct: made in house; host or cells: Sf9 insect cells, baculovirus
T3 sequence (P07550 whole entry): as the sequence (P07550 whole entry) above
As to the kind of experiment: β2AR stability, [3H]-dihydroalprenolol (DHA) ligand binding. The following applies: CMC+0.2 wt %, 10 days at room temperature. The method, then: A receptor was expressed in Sf9 insect cells infected with Baculovirus and solubilized in 1% DDM. The DDM-solubilized receptor was purified by alprenolol-sepharose in the presence of 0.01% cholesteryl succinate (CHS). β2AR purified by DDM was diluted with a buffer containing DDM or VEGs (VEG-1, VEG-2, VEG-3 and VEG-5) to reach the final concentration of CMC+0.2 wt %. β2AR solubilized in each compound was stored for 10 days at room temperature, and the ligand binding ability of the receptor was measured at regular intervals by incubating the receptor with 10 nM radioactive [^3H]-dihydroalprenolol (DHA) for 30 minutes at room temperature. The mixture was loaded into a G-50 column, and a supernatant was collected using a certain amount of binding buffer (supplemented with […] pH 7.5, 100 mM NaCl, 0.5 mg/ml BSA). In addition, a 15 ml scintillation fluid was added. Receptor-binding [^3H]-DHA was measured using a scintillation counter (Beckman).

The target in data set [3] is T2, β2AR-Gs complex. To be noted: DDM-purified complex, previous study; cited from earlier work.
Data set [4] in a line: Critical micelle concentration by hydrophobic fluorescence staining with diphenylhexatriene (DPH). In kind it is physicochemical. The following applies: aqueous solution. The method, then:
A method of measuring CMC is not particularly limited, and may be a method widely known in the art, for example, fluorescent staining using diphenylhex riene (DPH).
(§1) To identify the properties of VEGs synthesized according to the synthetic methods of Preparation Examples 1 to […] molecular weights (M.W.) and critical micellar concentrations (CMCs) of VEGs, and the hydrodynamic radii (Rh) of formed micelles were measured.
(§2) Specifically, the CMCs were measured using hydrophobic fluorescence staining and diphenylhexatriene (DPH), and the hydrodynamic radii (Rh) of the micelles formed by each formulation were measured by dynamic light scattering (DLS).

Data set [5] deals with T4, MelBSt (melibiose permease) (Salmonella typhimurium, UniProt P30878).
T4 construct: made in house; host or cells: E. coli DW2 (ΔmelB and ΔlacZY), plasmid pK95ΔAHB/WT MelBSt/CH10
T4 sequence (P30878 whole entry): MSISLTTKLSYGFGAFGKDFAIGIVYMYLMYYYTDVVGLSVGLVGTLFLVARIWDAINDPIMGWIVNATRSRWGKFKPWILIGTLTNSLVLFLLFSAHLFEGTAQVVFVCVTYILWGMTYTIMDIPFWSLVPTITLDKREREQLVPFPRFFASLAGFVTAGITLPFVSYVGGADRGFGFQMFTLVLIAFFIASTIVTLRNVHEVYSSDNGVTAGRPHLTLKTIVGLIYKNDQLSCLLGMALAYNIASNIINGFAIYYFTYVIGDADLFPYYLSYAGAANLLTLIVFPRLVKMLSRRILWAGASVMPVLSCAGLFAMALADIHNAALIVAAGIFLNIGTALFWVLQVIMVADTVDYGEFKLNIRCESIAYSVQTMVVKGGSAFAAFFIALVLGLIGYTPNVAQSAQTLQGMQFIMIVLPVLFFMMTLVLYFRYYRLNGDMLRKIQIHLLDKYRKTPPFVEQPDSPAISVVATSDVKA
The experiment in a line: MelBSt extraction/solubilization and thermal stability, SDS-PAGE and Western blotting. The method, then:
Specifically, Salmonella typhimurium MelBSt (melibiose permease) having a 10 His tag at the C-terminus was expressed in E. coli DW2 cells (ΔmelB and ΔlacZY) using a pK95ΔAHB/WT MelBSt/CH10 plasmid. Cell growth and membrane preparation were carried out according to the methods disclosed in the paper written by A. S. Ethayathulla et al. (Nat. Commun. 2014, 5, 3009). A protein assay was performed using a Micro BCA kit (Thermo Scientific, Rockford, Ill.). MelBSt stability in VEGs or DDM was evaluated using the protocol disclosed in Nat. Methods 2010, 7, 1003-1008, written by P. S. Chae et al. A MelBSt-containing membrane sample (the final protein concentration was 10 mg/mL) was incubated in a solubilization buffer containing 1.5% (w/v) DDM or VEGs (50 mM sodium phosphate, pH 7.5, 200 mM NaCl, 10% glycerol, 20 mM melibiose) at two different temperatures (0 and 23° C.) for 90 minutes. To remove an insoluble material, ultracentrifugation was performed using a Beckman Optima™ MAX ultracentrifuge equipped with a TLA-100 rotor at 355,590 g and 4° C. for 30 minutes. […] The loaded samples were analyzed by SDS-15% PAGE, and then visualized by immunoblotting with a Penta-His-HRP antibody (Qiagen, Germantown, Md.).
To assess the thermal stability of MelBSt in various amphipathic molecules, MelBSt extracted with individual amphipathic molecules at 23° C. was subjected to additional thermal treatment at three different temperature (45, 55 and 65° C.) and ultracentrifugation, followed by SDS-15% PAGE and Western blotting. MelBSt was detected using a SuperSignalWest Pico chemiluminescent substrate by an ImageQuant LAS 4000 Biomolecular Imager (GE Healthcare Life Science).
For orientation: In western blotting, separated proteins are transferred to a membrane and probed.

Data set [6] is described as follows: Hydrodynamic radius of micelles by dynamic light scattering (DLS). It counts as physicochemical. The following applies: at 1.0 wt %. The method, then: A method of measuring the radius of a micelle is not particularly limited, but may be a method well known in the art, for example, dynamic light scattering (DLS).
as §1, §2

Data set [7] concerns the target T1, UapA. The experiment in a line: UapA thermal stability, CPM assay. Set-up: made in house; host or cells: Saccharomyces cerevisiae FGY217 membranes. The following applies: CMC+0.2 wt %, 40° C. for 120 minutes. The method, then: UapAG411VΔ1-11 (hereinafter, referred to as “UapA”) was expressed in a Saccharomyces cerevisiae FGY217 strain by GFP fusion, and isolated into a sample buffer (20 mM Tris (pH 7.5), 150 mM NaCl, 0.03% DDM, 1 mM xanthine), which was performed according to the method disclosed in the paper written by J. Leung et al. (Mol. Menthr. Biol. 2013, 30, 32-42). The protein was concentrated to be approximately 10 mg/ml using a 100 kDa molecular weight cutoff filter (Millipore). The protein was diluted 1:150 with a buffer containing DDM, VEG (VEG-1, VEG-2, VEG-3, VEG-4 or VEG-5) or LMNG at CMC+0.2 wt % in Greiner 96. CPM dye (Invitrogen) stored in DMSO (Sigma) was diluted with a dye buffer (20 mM Tris (pH 7.5), 150 mM NaCl, 0.03% DDM, 5 mM EDTA), and 3 μL of the diluted dye was added to an individual protein sample. The reaction mixture was treated at a constant temperature of 40° C. for 120 minutes. A fluorescence emission intensity was monitored using a microplate spectrofluorometer set to excitation and emission wavelengths of 387 and 463 nm, respectively. The maximum fluorescence value was used to calculate the percentage of a protein folded during incubation. The relative amount of the folded protein was plotted over time using GraphPad Prism.

[8] abbreviates: 1.5 wt %, extracted at 23° C., then 55° C.

Where “and” joins values, the source holds several entries; their conditions need not be identical. Equal entries are not always repeated. Entries after “also recorded” stand apart in the source; their conditions may differ.

With `CCCCCCCCCCC(CCCCCCCCCC)(CO[C@@H]1O[C@H](CO)[C@@H](O[C@H]2O[C@H](CO)[C@@H](O)[C@H](O)[C@H]2O)[C@H](O)[C@H]1O)CO[C@@H]1O[C@H](CO)[C@@H](O[C@H]2O[C@H](CO)[C@@H](O)[C@H](O)[C@H]2O)[C@H](O)[C@H]1O` [LMNG, reference compound], at UapA [1], the “UapA integrity after thermal treatment (FSEC)” value (“UapA integrity” below) was “considerably degraded”; the “Ability to extract and solubilize UapA (FSEC)” value (“Ability … (FSEC)” below) was “superior to VEG-3 and VEG-5”.

As for `CCCCCCCCCCCCO[C@@H]1O[C@H](CO)[C@@H](O[C@H]2O[C@H](CO)[C@@H](O)[C@H](O)[C@H]2O)[C@H](O)[C@H]1O` [DDM, n-dodecyl-β-D-maltopyranoside, reference compound], the “Integrity of the purified β2AR-Gs complex” value at β2AR-Gs complex [2] is “significant dissociation between the receptor and Gs protein even after 2 day-incubation”. On β2AR, the “Long-term β2AR activity ([3H]-DHA binding)” value (from here on “Long-term β2AR activity”) is “rapid loss of activity over time”. Further, the “Homogeneity of β2AR-Gs complex particles (EM)” value on β2AR-Gs complex [3] is listed as “aggregation of particles”. In addition, in data set [4], the “CMC” value was 0.17 mM and 0.170 mM; the “CMC (wt %)” value is recorded as 0.0087 wt %. For the same molecule, in data set [5] (1.5 wt % detergent, 0° C. and 23° C., 90 minutes), the “MelBSt extraction/solubilization efficiency from the cell membrane” value was “more efficient; also recorded: higher protein extraction efficiency than VEGs”. Also, the MelBSt solubilization efficiency result in data set [5] (1.5 wt %, extracted at 23° C., then 45° C.) is “almost similar efficiencies”. In addition, in data set [5] (setting [8]), the MelBSt solubilization efficiency entry was “significant decrease”. Further, the “Rh (nm), hydrodynamic radius of micelles” value in data set [6] is listed as 3.4 ± 0.0 nm. On UapA [1], the “UapA integrity” value is “considerably degraded”; the “Ability … (FSEC)” value was “superior to VEG-3 and VEG-5”.

As for `Cc1c(C)c2c(c(C)c1O[C@@H]1OC(CO[C@@H]3OC(CO)[C@@H](O)[C@H](O)C3O)[C@@H](O[C@@H]3OC(CO)[C@@H](O)[C@H](O)C3O)[C@H](O[C@@H]3OC(CO)[C@@H](O)[C@H](O)C3O)C1O[C@@H]1OC(CO)[C@@H](O)[C@H](O)C1O)CCC(C)(CCCC(C)CCCC(C)CCCC(C)C)O2` (stereo partly shown) [VEG-5], the “Long-term β2AR activity” value at β2AR is given as “rapid loss of activity over time”. Also, in data set [4], the “CMC” value was roughly 0.002 mM and the “CMC (wt %)” value is roughly 0.0002 wt %. Besides, in data set [5] (setting [8]), the MelBSt solubilization efficiency entry is reported as “remained intact”. Also, the “Ability to maintain UapA in a structurally stable state (CPM assay)” value on UapA [7] is reported as “excellent ability to maintain UapA in a structurally stable state”. The “Rh (nm), hydrodynamic radius of micelles” value in data set [6] turned out to be 3.9 ± 0.1 nm. Also, at UapA [1], the “UapA integrity” value is recorded as “maintained protein integrity”; the “Ability … (FSEC)” value was “LMNG and DDM were superior to VEG-3 and VEG-5”.

As to `Cc1c(C)c2c(c(C)c1OCC(CO[C@@H]1OC(CO)[C@@H](O)[C@H](O)C1O)(CO[C@@H]1OC(CO)[C@@H](O)[C@H](O)C1O)CO[C@@H]1OC(CO)[C@@H](O)[C@H](O)C1O)CCC(C)(CCCC(C)CCCC(C)CCCC(C)C)O2` (stereo partly shown) [VEG-1], in data set [4], the “CMC” value is roughly 0.002 mM and the “CMC (wt %)” value is listed as roughly 0.0002 wt %. For the same molecule, the “Rh (nm), hydrodynamic radius of micelles” value in data set [6] was determined as 4.2 ± 0.1 nm.

`Cc1c(C)c2c(c(C)c1OCCOCC(CO[C@@H]1OC(CO)[C@@H](O)[C@H](O)C1O)(CO[C@@H]1OC(CO)[C@@H](O)[C@H](O)C1O)CO[C@@H]1OC(CO)[C@@H](O)[C@H](O)C1O)CCC(C)(CCCC(C)CCCC(C)CCCC(C)C)O2` (stereo partly shown) [VEG-2]: at β2AR, the “Long-term β2AR activity” value is reported as “consistently maintained during incubation for 10 days”. In data set [4], the “CMC” value was roughly 0.003 mM and the “CMC (wt %)” value was roughly 0.0003 wt %. In addition, the “Rh (nm), hydrodynamic radius of micelles” value in data set [6] is on record as 4.7 ± 0.1 nm.

Regarding `Cc1c(C)c2c(c(C)c1OCCC(CO[C@@H]1OC(CO)[C@@H](O[C@H]3OC(CO)[C@@H](O)[C@H](O)C3O)[C@H](O)C1O)CO[C@@H]1OC(CO)[C@@H](O[C@H]3OC(CO)[C@@H](O)[C@H](O)C3O)[C@H](O)C1O)CCC(C)(CCCC(C)CCCC(C)CCCC(C)C)O2` (stereo partly shown) [VEG-4], in data set [4], the “CMC” value was roughly 0.003 mM and the “CMC (wt %)” value is roughly 0.0003 wt %. Besides, in data set [5] (setting [8]), the MelBSt solubilization efficiency result is reported as “remained intact”. Besides, the MelBSt solubilization ability result in data set [5] (1.5 wt %, extracted at 23° C., then 65° C.) is given as “very excellent protein solubilization ability”. Besides, the “MelBSt transporter solubilization ability in the thermal stability experiment” value in data set [5] (elevated temperatures (overall)) is “higher transporter solubilization ability than DDM”. In addition, the “Rh (nm), hydrodynamic radius of micelles” value in data set [6] is recorded as 5.1 ± 0.1 nm.
